Source: US10821084B2, “Dihydromyricetin compositions” (REMY BIOSCIENCES, INC., priority 2018, dated 2020)

Assays:
[1] = In vitro transdermal flux of cannabinoids from monolithic patches, Franz Diffusion Cell method; format: in vitro ADME, human; conditions: for stimulation of cumulative CBD flux versus no dihydromyricetin: 15% CBD patch
Description: Transdermal flux of cannabinoids can be measured In Vitro through human cadaver epidermis using Franz Diffusion Cell Method. Samples of 300 microliters can be taken of the receiving solution and analyzed by HPLC for amount ofcannabinoid substance that passed through the epidermis.
Flux is preferably measured using human cadaver skin with a Franz Diffusion Cell (see, Kristof (2017) Feasibility of transdermal delivery of Cyclosporine A using plasma discharges. Biointerphases. 12:02B402). Flux can be measured where the temperature of the Franz Diffusion Cell (and solutions inside the Franz Diffusion Cell) are held constant at about 17 degrees C., about 20 degrees C., about 23 degrees C. (“room temperature”), about 26 degrees C., about 30 degrees C., about 33 degrees C., about 37 degrees C. (mammalian body temperature), about 40 degrees C., and so on.
For each figure, the number of hours that flux was allowed to occur was twentyfour hours (24 hours). The data for each figure used a monolithic patch. Composition of the patch: PIB adhesive with 15% of CBD or 8% THC. Patch construction was adhesive layer attached to a backing polyethylene foam film. No additional overlays were used. Experiments were done using Franz Diffusion Cells using human cadaver skin.

[2] = patch measuring 20 cm^2, PIB adhesive and 10% CBD; cited from earlier work

Compound: CCCCCc1cc(O)c2c(c1)OC(C)(C)[C@@H]1CCC(C)=C[C@@H]21 [THC, tetrahydrocannabinol]
- control net flux of THC ([1]; control monolithic patch without any dihydromyricetin, 8% THC, over a period of 24 hours): about 90 micrograms THC per square centimeter of skin
- cumulative transdermal flux of THC ([1]; monolithic PIB patch, 8% THC, 0.5% dihydromyricetin, 24 hours, FIG. 1 third bar): about 145 micrograms/cm^2
- cumulative transdermal flux of THC ([1]; monolithic PIB patch, 8% THC, 3% oleic acid, 24 hours, FIG. 1 second bar): about 110 micrograms/cm^2
- cumulative transdermal flux of THC ([1]; monolithic PIB patch, 8% THC, no enhancer, 24 hours, FIG. 1 first bar): about 90 micrograms/cm^2
- net flux of THC ([1]; monolithic PIB patch, 8% THC, with dihydromyricetin, over a period of 24 hours): at least 145 micrograms THC per square centimeter of skin

Compound: C=C(C)[C@@H]1CCC(C)=C[C@H]1c1c(O)cc(CCCCC)cc1O [CBD, cannabidiol]
- control net flux of CBD ([1]; control monolithic patch without any dihydromyricetin, 15% CBD, over a period of 24 hours): about 155 micrograms CBD per square centimeter of skin
- cumulative transdermal flux of CBD ([1]; monolithic PIB patch, 15% CBD, 0% dihydromyricetin, 24 hours, FIG. 2 first bar): about 155 micrograms/cm^2
- cumulative transdermal flux of CBD ([1]; monolithic PIB patch, 15% CBD, 3% dihydromyricetin, 24 hours, FIG. 2 second bar): about 195 micrograms/cm^2
- cumulative transdermal flux of CBD ([1]; monolithic PIB patch, 15% CBD, 5% dihydromyricetin, 24 hours, FIG. 2 third bar): about 230 micrograms/cm^2
- net flux of CBD ([1]; monolithic PIB patch, 15% CBD, with dihydromyricetin, over a period of 24 hours): at least 195 micrograms CBD per square centimeter of skin
- daily systemic dose of CBD deliverable [2]: about 5 mg

Compound: O=C1c2c(O)cc(O)cc2O[C@H](c2cc(O)c(O)c(O)c2)[C@H]1O [dihydromyricetin]
- stimulation of cumulative THC flux versus no dihydromyricetin ([1]; 8% THC patch, 5% dihydromyricetin (third histogram bar), 24 hours): about 61%
- stimulation of cumulative CBD flux versus no dihydromyricetin ([1]; 3% dihydromyricetin, 24 hours): about 25%
- stimulation of cumulative CBD flux versus no dihydromyricetin ([1]; 5% dihydromyricetin, 24 hours): about 48%
- increase of CBD flux through skin (factor) ([1]; dermal patch formulation that includes CBD, human cadaver skin): three-fold
